System: bone resorption
Assay: Concomitant administration of test compound and estrogen: bone resorption marker blood ICTP
Assay type: in vivo, ovariectomized rats
Conditions: for Blood ICTP concentration: mean ± S.D., n = 5
Method: The 13-week-old ovariectomized rats were divided into 4 groups of a control group (Group A), an estrogen administration group (Group B), a test compound administration group (Group C), and a test compound and estrogen concomitant administration group (Group D). One sham control group (E group) subjected to a sham surgery was also established. Estradiol was dissolved in 5% benzyl alcohol-corn oil and subcutaneously administered to an estrogen administration groups (Group B and Group D) at the dose of 10 μg/kg. 5% Benzyl alcohol-corn oil was subcutaneously administered to groups (Group A and Group C) free from administration of estrogen. The compound of Example 1-1 was suspended in 0.5% methyl cellulose solution and orally administered to groups (Group C and Group D) to be administered with the test compound at the dose of 3 mg/kg. As regards the groups (Group A and Group B) free from administration of the test compound, 0.5% methyl cellulose solution was orally administered. On day 13 from the start of the administration, the blood was drawn in each group from the tail vein, and serum was obtained. ICTP, which is a blood bone resorption marker, was measured using a commercially available ELISA kit (“RatLaps ELISA kit”, Nordic Bioscience Diagnostics).

Cc1ccc(CC(C)(C)NC[C@@H](O)CO[C@H](C)c2ccccc2-c2ccc(C(=O)O)c(C)c2)cc1F [Example 1-1, 2′-[(1R)-[(2R)-3-[[1-(3-Fluoro-4-methylphenyl)-2-methylpropan-2-yl]amino]-2-hydroxypropoxy]ethyl]-3-methylbiphenyl-4-carboxylic acid]
Effect of concomitant administration on suppression of ICTP increase by estrogen (Table 65, concomitant with estrogen): did not show changes in the ability to suppress estrogen
Blood ICTP concentration (day 13, Group D: Example 1-1 3 mg/kg oral and estradiol 10 μg/kg s.c. concomitant): 21.77 ± 3.34 ng/mL
Blood ICTP concentration (day 13, exclusive administration (Group B estradiol 10 μg/kg s.c.; Group C Example 1-1 3 mg/kg oral)): 26.10 ± 3.45 ng/mL

Source: patent US7304174B2, “CaSR antagonist” (Japan Tobacco Inc., priority 2003, dated 2007)
